From patent publication US20230131899A1, “INHIBITORS OF MICROBIALLY INDUCED AMYLOID” (Axial Therapeutics, Inc., priority 2020, published 2023)
Where two headings read alike, the source gives them in different places.

Tested on: CsgA gene expression (csgBAC promoter-GFP reporter) in E. coli UTI89
Test: In vitro live cell fluorescent reporter assay of CsgA transcription (Reporter Assay)
Format: cell-based
Conditions: Escherichia coli
How it was run: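 Chromosomal single-copy csgBAC promoter–GFP reporter in E. coli UTI89, started at OD600 0.003 in YESCA broth with compound (0.14–100 μM, 1% DMSO), 20 h at 27 °C. GFP (ex 485/em 525 nm) background-subtracted and normalized to vehicle; IC50 and X[50] from curve fits. OD600 tracked growth effects.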

[1] = read-out: Reporter Assay Abs IC50 (μM), median Abs IC50 in the CsgA reporter assay, N/A = maximum expression reduction is <50% of control
[2] = read-out: Reporter Assay Abs IC50, activity range, class symbol

Row | SMILES | IC50 [1] | IC50 [2]
1 | CCCN1CC(C(=O)O)n2c(c(-c3cccc(C(F)(F)F)c3)c(Cc3cccc4ccccc34)c(NC(=O)CC)c2=O)S1(=O)=O (stereo not shown) [Compound 153, 8-(naphthalen-1-ylmethyl)-6-oxo-7-propionamido-2-propyl-9-(3-(trifluoromethyl)phenyl)-3,4-dihydro-2H,6H-pyrido[1,2-e][1,2,5]thiadiazine-4-carboxylic acid 1,1-dioxide] | 16.6 µM | > 10 µM
2 | CCCNC(=O)c1c(Cc2cccc3ccccc23)c(-c2cccc(C(F)(F)F)c2)c2n(c1=O)C(C(=O)O)CN(C)S2(=O)=O (stereo not shown) [Compound 154, 2-methyl-8-(naphthalen-1-ylmethyl)-6-oxo-7-(propylcarbamoyl)-9-(3-(trifluoromethyl)phenyl)-3,4-dihydro-2H,6H-pyrido[1,2-e][1,2,5]thiadiazine-4-carboxylic acid 1,1-dioxide] | 6.1 µM | 4.6 to 10 µM
3 | O=C(O)C1CN(Cc2ccccc2)c2c(-c3cccc(C(F)(F)F)c3)c(C(F)(F)c3cccc4ccccc34)c(Br)c(=O)n21 (stereo not shown) [Compound 155, 1-benzyl-6-bromo-7-(difluoro(naphthalen-1-yl)methyl)-5-oxo-8-(3-(trifluoromethyl)phenyl)-1,2,3,5-tetrahydroimidazo[1,2-a]pyridine-3-carboxylic acid] | 3 µM | 1.3 to 4.5 µM
4 | CCNC(=O)c1c(Cc2cccc3ccccc23)c(-c2cccc(C(F)(F)F)c2)c2n(c1=O)C(C(=O)O)CN(C)S2(=O)=O (stereo not shown) [Compound 156, 7-(ethylcarbamoyl)-2-methyl-8-(naphthalen-1-ylmethyl)-6-oxo-9-(3-(trifluoromethyl)phenyl)-3,4-dihydro-2H,6H-pyrido[1,2-e][1,2,5] thiadiazine-4-carboxylic acid 1,1-dioxide] | 9.3 µM | 4.6 to 10 µM
5 | CN1CC(C(=O)O)n2c(c(-c3cccc(C(F)(F)F)c3)c(Cc3cccc4ccccc34)c(C(=O)NC(C)(C)C)c2=O)S1(=O)=O (stereo not shown) [Compound 158, 7-(tert-butylcarbamoyl)-2-methyl-8-(naphthalen-1-ylmethyl)-6-oxo-9-(3-(trifluoromethyl)phenyl)-3,4-dihydro-2H,6H-pyrido[1,2-e][1,2,5]thiadiazine-4-carboxylic acid 1,1-dioxide] | 1.7 µM | 1.3 to 4.5 µM
6 | CN1CC(C(=O)O)n2c(c(-c3cccc(C(F)(F)F)c3)c(Cc3cccc4ccccc34)c(C(=O)N3CCOCC3)c2=O)S1(=O)=O (stereo not shown) [Compound 160, 2-methyl-7-(morpholine-4-carbonyl)-8-(naphthalen-1-ylmethyl)-6-oxo-9-(3-(trifluoromethyl)phenyl)-3,4-dihydro-2H,6H-pyrido[1,2-e][1,2,5] thiadiazine-4-carboxylic acid 1,1-dioxide] | 65.8 µM | > 10 µM
7 | CCc1c(Cc2cccc3ccccc23)c(-c2cccc(C(F)(F)F)c2)c2n(c1=O)C(C(=O)O)CN2Cc1ccc(OC)cc1 (stereo not shown) [Compound 161, 6-ethyl-1-(4-methoxybenzyl)-7-(naphthalen-1-ylmethyl)-5-oxo-8-(3-(trifluoromethyl)phenyl)-1,2,3,5-tetrahydroimidazo[1,2-a]pyridine-3-carboxylic acid] | 2.1 µM | 1.3 to 4.5 µM
8 | CCCN1CC(C(=O)O)n2c1c(-c1cccc(C(F)(F)F)c1)c(Cc1cccc3ccccc13)c(Cl)c2=O (stereo not shown) [Compound 162, 6-chloro-7-(naphthalen-1-ylmethyl)-5-oxo-1-propyl-8-(3-(trifluoromethyl)phenyl)-1,2,3,5-tetrahydroimidazo[1,2-a]pyridine-3-carboxylic acid] | 1.1 µM | < 1.3 µM
9 | CCCCN1CC(C(=O)O)n2c1c(-c1cccc(C(F)(F)F)c1)c(Cc1cccc3ccccc13)c(Cl)c2=O (stereo not shown) [Compound 163, 1-butyl-6-chloro-7-(naphthalen-1-ylmethyl)-5-oxo-8-(3-(trifluoromethyl)phenyl)-1,2,3,5-tetrahydroimidazo[1,2-a]pyridine-3-carboxylic acid] | 1.2 µM | < 1.3 µM
10 | CC(C)CN1CC(C(=O)O)n2c1c(-c1cccc(C(F)(F)F)c1)c(Cc1cccc3ccccc13)c(Cl)c2=O (stereo not shown) [Compound 164, 6-chloro-1-isobutyl-7-(naphthalen-1-ylmethyl)-5-oxo-8-(3-(trifluoromethyl)phenyl)-1,2,3,5-tetrahydroimidazo[1,2-a]pyridine-3-carboxylic acid] | 0.9 µM | < 1.3 µM
11 | O=C(O)C1CN(CC2CCCC2)c2c(-c3cccc(C(F)(F)F)c3)c(Cc3cccc4ccccc34)c(Cl)c(=O)n21 (stereo not shown) [Compound 167, 6-chloro-1-(cyclopentylmethyl)-7-(naphthalen-1-ylmethyl)-5-oxo-8-(3-(trifluoromethyl)phenyl)-1,2,3,5-tetrahydroimidazo[1,2-a]pyridine-3-carboxylic acid] | 0.6 µM | < 1.3 µM
12 | N#Cc1cccc(CN2CC(C(=O)O)n3c2c(-c2cccc(C(F)(F)F)c2)c(Cc2cccc4ccccc24)c(Cl)c3=O)c1 (stereo not shown) [Compound 168, 6-chloro-1-(3-cyanobenzyl)-7-(naphthalen-1-ylmethyl)-5-oxo-8-(3-(trifluoromethyl)phenyl)-1,2,3,5-tetrahydroimidazo[1,2-a]pyridine-3-carboxylic acid] | 1.3 µM | 1.3 to 4.5 µM
13 | O=C(O)C1CN(Cc2cccnc2)c2c(-c3cccc(C(F)(F)F)c3)c(Cc3cccc4ccccc34)c(Cl)c(=O)n21 (stereo not shown) [Compound 169, 6-chloro-7-(naphthalen-1-ylmethyl)-5-oxo-1-(pyridin-3-ylmethyl)-8-(3-(trifluoromethyl)phenyl)-1,2,3,5-tetrahydroimidazo[1,2-a]pyridine-3-carboxylic acid] | 3.8 µM | 1.3 to 4.5 µM
14 | O=C(O)C1CN(Cc2ccc(CO)cc2)c2c(-c3cccc(C(F)(F)F)c3)c(Cc3cccc4ccccc34)c(Cl)c(=O)n21 (stereo not shown) [Compound 170, 6-chloro-1-(4-(hydroxymethyl)benzyl)-7-(naphthalen-1-ylmethyl)-5-oxo-8-(3-(trifluoromethyl)phenyl)-1,2,3,5-tetrahydroimidazo[1,2-a]pyridine-3-carboxylic acid] | 2.2 µM | 1.3 to 4.5 µM
15 | CCCN1CC(C(=O)O)n2c(c(-c3cccc(C(F)(F)F)c3)c(Cc3cccc4ccccc34)c(C(N)=O)c2=O)S1(=O)=O (stereo not shown) [Compound 172, 7-carbamoyl-8-(naphthalen-1-ylmethyl)-6-oxo-2-propyl-9-(3-(trifluoromethyl)phenyl)-3,4-dihydro-2H,6H-pyrido[1,2-e][1,2,5]thiadiazine-4-carboxylic acid 1,1-dioxide] | 4.2 µM | 1.3 to 4.5 µM
16 | CN(C)C(=O)c1c(Cc2cccc3ccccc23)c(-c2cccc(C(F)(F)F)c2)c2n(c1=O)C(C(=O)O)CN(C)S2(=O)=O (stereo not shown) [Compound 173, 7-(dimethylcarbamoyl)-2-methyl-8-(naphthalen-1-ylmethyl)-6-oxo-9-(3-(trifluoromethyl)phenyl)-3,4-dihydro-2H,6H-pyrido[1,2-e] [1,2,5] thiadiazine-4-carboxylic acid 1,1-dioxide] | 6.7 µM | 4.6 to 10 µM
17 | O=C(O)C1CN(Cc2ccncc2)c2c(-c3cccc(C(F)(F)F)c3)c(Cc3cccc4ccccc34)c(Cl)c(=O)n21 (stereo not shown) [Compound 174, 6-chloro-7-(naphthalen-1-ylmethyl)-5-oxo-1-(pyridin-4-ylmethyl)-8-(3-(trifluoromethyl)phenyl)-1,2,3,5-tetrahydroimidazo[1,2-a]pyridine-3-carboxylic acid] | 4.4 µM | 1.3 to 4.5 µM
18 | CC(C)N1CC(C(=O)O)n2c(c(-c3cccc(C(F)(F)F)c3)c(Cc3cccc4ccccc34)c(C(N)=O)c2=O)S1(=O)=O (stereo not shown) [Compound 175, 7-carbamoyl-2-isopropyl-8-(naphthalen-1-ylmethyl)-6-oxo-9-(3-(trifluoromethyl)phenyl)-3,4-dihydro-2H,6H-pyrido[1,2-e][1,2,5]thiadiazine-4-carboxylic acid 1,1-dioxide] | 1.4 µM | 1.3 to 4.5 µM
19 | NC(=O)c1c(Cc2cccc3ccccc23)c(-c2cccc(C(F)(F)F)c2)c2n(c1=O)C(C(=O)O)CN(C1CCCC1)S2(=O)=O (stereo not shown) [Compound 176, 7-carbamoyl-2-cyclopentyl-8-(naphthalen-1-ylmethyl)-6-oxo-9-(3-(trifluoromethyl)phenyl)-3,4-dihydro-2H,6H-pyrido[1,2-e][1,2,5]thiadiazine-4-carboxylic acid 1,1-dioxide] | 1.3 µM | 1.3 to 4.5 µM
20 | CCCCN1CC(C(=O)O)n2c(c(-c3cccc(C(F)(F)F)c3)c(Cc3cccc4ccccc34)c(C(N)=O)c2=O)S1(=O)=O (stereo not shown) [Compound 177, 2-butyl-7-carbamoyl-8-(naphthalen-1-ylmethyl)-6-oxo-9-(3-(trifluoromethyl)phenyl)-3,4-dihydro-2H,6H-pyrido[1,2-e][1,2,5]thiadiazine-4-carboxylic acid 1,1-dioxide] | 1.3 µM | 1.3 to 4.5 µM
21 | O=C(O)C1CN(CCc2ccccc2)c2c(-c3cccc(C(F)(F)F)c3)c(Cc3cccc4ccccc34)c(Cl)c(=O)n21 (stereo not shown) [Compound 178, 6-chloro-7-(naphthalen-1-ylmethyl)-5-oxo-1-phenethyl-8-(3-(trifluoromethyl)phenyl)-1,2,3,5-tetrahydroimidazo[1,2-a]pyridine-3-carboxylic acid] | 0.8 µM | < 1.3 µM
22 | CC(C)N1CC(C(=O)O)n2c1c(-c1cccc(C(F)(F)F)c1)c(Cc1cccc3ccccc13)c(Cl)c2=O (stereo not shown) [Compound 179, 6-chloro-1-isopropyl-7-(naphthalen-1-ylmethyl)-5-oxo-8-(3-(trifluoromethyl)phenyl)-1,2,3,5-tetrahydroimidazo[1,2-a]pyridine-3-carboxylic acid] | 1.4 µM | 1.3 to 4.5 µM
23 | O=C(O)C1CN(CC2CCCCC2)c2c(-c3cccc(C(F)(F)F)c3)c(Cc3cccc4ccccc34)c(Cl)c(=O)n21 (stereo not shown) [Compound 180, 6-chloro-1-(cyclohexylmethyl)-7-(naphthalen-1-ylmethyl)-5-oxo-8-(3-(trifluoromethyl)phenyl)-1,2,3,5-tetrahydroimidazo[1,2-a]pyridine-3-carboxylic acid] | 0.5 µM | < 1.3 µM
